Source: ChEMBL document CHEMBL1131912, “Synthesis of potent and selective inhibitors of human plasma kallikrein” (Bioorg Med Chem Lett, 1999)

What was measured:
Plasma kallikrein = Plasma kallikrein (Homo sapiens, UniProt P03952); experiment: Inhibitory activity of compound against human plasma Kallikrein (PK); format: cell-free
Kallikrein-1 = Kallikrein-1 (Homo sapiens, UniProt P06870); experiment: Inhibitory activity of compound against Tissue Kallikrein (TK)
Chain of Kallikrein-1 (P06870 whole entry): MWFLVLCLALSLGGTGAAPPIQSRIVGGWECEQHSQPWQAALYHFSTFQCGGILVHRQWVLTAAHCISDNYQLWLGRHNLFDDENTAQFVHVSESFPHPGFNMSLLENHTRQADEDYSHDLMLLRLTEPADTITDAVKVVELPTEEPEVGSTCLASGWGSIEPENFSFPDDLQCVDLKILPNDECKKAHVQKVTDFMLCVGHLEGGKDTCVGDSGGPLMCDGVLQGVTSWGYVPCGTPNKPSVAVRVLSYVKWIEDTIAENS

Chain of Plasma kallikrein (P03952 20-390 limits assumed): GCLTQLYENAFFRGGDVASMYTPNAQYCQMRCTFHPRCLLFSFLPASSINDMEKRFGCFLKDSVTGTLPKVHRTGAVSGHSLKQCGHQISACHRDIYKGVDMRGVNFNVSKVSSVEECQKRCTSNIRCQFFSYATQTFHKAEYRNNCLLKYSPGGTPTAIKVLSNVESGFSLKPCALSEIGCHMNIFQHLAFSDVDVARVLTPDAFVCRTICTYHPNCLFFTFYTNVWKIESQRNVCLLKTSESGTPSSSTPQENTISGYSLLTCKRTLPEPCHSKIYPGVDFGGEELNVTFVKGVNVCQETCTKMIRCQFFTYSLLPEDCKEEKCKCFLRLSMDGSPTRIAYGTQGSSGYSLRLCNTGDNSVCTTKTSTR
Chain of Plasma kallikrein (P03952 391-638 limits assumed): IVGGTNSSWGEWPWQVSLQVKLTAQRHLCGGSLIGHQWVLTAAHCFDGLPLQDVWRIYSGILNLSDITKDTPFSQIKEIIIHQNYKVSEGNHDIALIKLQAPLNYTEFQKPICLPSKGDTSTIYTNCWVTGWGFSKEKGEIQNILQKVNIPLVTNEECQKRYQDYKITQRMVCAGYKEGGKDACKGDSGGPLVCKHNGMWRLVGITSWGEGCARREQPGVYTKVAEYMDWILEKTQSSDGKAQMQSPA

SMILES | Ki (Plasma kallikrein) | Ki (Kallikrein-1)
CC(C)(C)[C@@H](NC(=O)N1CCOCC1)C(=O)NCC(=O)NC(Cc1ccc(NC(=N)N)cc1)C(=O)C(F)(F)F (some centres undefined) | 15.5 µM | > 150 µM
CC(C)(C)[C@@H](NC(=O)N1CCOCC1)C(=O)N[C@@H](Cc1ccccc1)C(=O)NC(Cc1ccc(NC(=N)N)cc1)C(=O)C(F)(F)F (some centres undefined) | 0.028 µM | > 2500 µM
CC(C)(C)[C@@H](NC(=O)OC12CC3CC(CC(C3)C1)C2)C(=O)N[C@H](C(=O)NC(Cc1ccc(NC(=N)N)cc1)C(=O)C(F)(F)F)c1ccc2ccccc2c1 (some centres undefined) | 0.5 µM | > 50 µM
N=C(N)Nc1ccc(CC(NC(=O)[C@H](Cc2ccccc2)NC(=O)[C@@H](CCc2ccccc2)NC(=O)OC23CC4CC(CC(C4)C2)C3)C(=O)C(F)(F)F)cc1 (some centres undefined) | 0.004 µM | 7 µM
CC(C)(C)OC(=O)N[C@H](Cc1ccccc1)C(=O)N[C@H](C(=O)NC(Cc1ccc(NC(=N)N)cc1)C(=O)C(F)(F)F)c1ccc2ccccc2c1 (some centres undefined) | 0.089 µM | 223 µM
CC(C)[C@@H](NC(=O)OC12CC3CC(CC(C3)C1)C2)C(=O)N[C@@H](Cc1ccccc1)C(=O)NC(Cc1ccc(NC(=N)N)cc1)C(=O)C(F)(F)F (some centres undefined) | 0.005 µM | 191 µM
CC(C)(C)[C@@H](NC(=O)OC12CC3CC(CC(C3)C1)C2)C(=O)N[C@@H](Cc1ccccc1)C(=O)NC(Cc1ccc(NC(=N)N)cc1)C(=O)C(F)(F)F (some centres undefined) | 0.002 µM | 47.3 µM
